# Reference: US9303061B2, “Spiro compounds as Hepatitis C virus inhibitors” (Sunshine Luke Pharma Co., Ltd., priority 2011, dated 2016)
# pEC50: −log10 of the molar value.
# How the values were obtained:
# HCV GT1b replicon cells = experiment: HCV replicon assay, GT1b replicon cells (luciferase reporter / NEO gene qPCR); assay type: cell-based; settings: EC50 range against HCV 1b genotype, 72 hours incubation
# Description: (§1) An HCV Replicon assay was utilized in the present disclosure, and was prepared, developed and validated as described in Science, 1999, 285 (5424), 110-3 and J. Virol., 2003, 77 (5), 3007-19.
# (§2) HCV GT1a, GT1b and GT2a replicon cells were used to test the currently described compound series as well as wild-type cells HCV 1b and resistant cells Y93H, L31F, P32L and 1302V. GT1a, GT1b and GT2a are HCV Replicon System which is transfected HCV 1a, 1b, 2a genotype respectively. The system containing G418 resistance gene NEO and Luciferase Reporter Gene can be used to determine the level of HCV replication, and evaluate the effects of the compounds inhibiting HCV replication, by using a real-time quantitative polymerase chain reaction (qPCR) method to detect NEO, and chemiluminescence method to test Luciferase Reporter Gene.
# (§3) 1. Testing EC50 of the Compounds by Luciferase Assay
# (§4) The GT1a cells and GT1b cells were seeded into 96-well plates (8,000 cells in 125 μl/well) respectively; each compound was diluted to desired concentration using 5-fold serial dilutions protocol, 10 dose in duplicate, and added to wells with POD™ 810 Plate Assembler. The final concentration of DMSO was 0.5%; the plates were incubated in a CO2 incubator for 72 hours; after that, 40 μl of Luciferase assay substrate (Promega Bright-Glo) was added to each well, and detected by a chemiluminescence detection system (Topcount Microplate Scintillation and Luminescence Counter) 5 minutes later; data analysis.
# (§5) 2. Testing EC50 of the Compounds by Detecting Antibiotic G418 Resistance Gene NEO Gene
# (§6) The GT1a cells and GT1b cells were seeded into 96-well plates (8,000 cells in 125 μl/well) respectively; each compound was diluted to desired concentration using 5-fold serial dilutions protocol, 10 dose in duplicate, and added to wells with POD™ 810 Plate Assembler, the final concentration of DMSO was 0.5%; the cells were incubated in a CO2 incubator for 72 hours; quantitative PCR. • Sample preparation: the supernatant was removed, 100 μl of FCW buffer solution was added to each well, washed carefully and discarded the solution; 50 μl of lysate FCP was added to each well, the cells was lysed as PCR template and PCR template was diluted with DEPC water as sample template. • Quantitative PCR: preparation of reaction mixture according to PCR system; the reaction mixture was dispensed into a 384-well PCR reaction plate (specially for quantitative); and a standard template which was diluted in proportion was distributed into the plate; and the sample template was distributed into the plate; then the 384-well plate was sealed with closure plate membrane; the […] PCR machine was operated by procedures; data analysis.
# (§7) 3. Data processing: EC50 values of compounds were analyzed by GRAPHPAD PRISM® software.
# HCV GT1a replicon cells = experiment: HCV replicon assay, GT1a replicon cells (luciferase reporter / NEO gene qPCR); assay type: cell-based; settings: EC50 range against HCV 1a genotype, 72 hours incubation
# Description: as §1, §2, §3, §4, §5, §6, §7
SMILES,"pEC50 (HCV GT1b replicon cells; Hepatitis C virus, GT1B, 72 h)","pEC50 (HCV GT1a replicon cells; Hepatitis C virus, GT1A)",pEC50 (HCV GT1b replicon cells),pEC50 (HCV GT1a replicon cells)
COC(=O)N[C@H](C(=O)N1CCC[C@H]1c1ncc(-c2ccc3cc(-c4ccc(-c5cnc([C@@H]6CCCN6C(=O)[C@@H](NC(=O)OC)C(C)C)[nH]5)c5c4CC4(CCCCC4)C5)ccc3c2)[nH]1)C(C)C [Example 49],8.00 to 9.00,10.00 to 12.00,–,–
COC(=O)N[C@H](C(=O)N1CCC[C@H]1c1ncc(-c2ccc(-c3ccc(-c4ccc5nc([C@@H]6CCCN6C(=O)[C@@H](NC(=O)OC)C(C)C)[nH]c5c4)c4c3CC3(CCCC3)C4)cc2)[nH]1)C(C)C [Example 23],10.00 to 12.00,10.00 to 12.00,–,–
COC(=O)N[C@H](C(=O)N1CCC[C@H]1c1nc(-c2ccc(-c3ccc(-c4ccc(-c5cnc([C@@H]6CCCN6C(=O)[C@@H](NC(=O)OC)C(C)C)[nH]5)cc4)c4c3C(=O)C3(CCCC3)C4)cc2)c[nH]1)C(C)C [Example 1],8.00 to 9.00,10.00 to 12.00,–,–
COC(=O)N[C@H](C(=O)N1CCC[C@H]1c1ncc(-c2ccc(-c3ccc(-c4ccc5nc([C@@H]6CCCN6C(=O)[C@@H](NC(=O)OC)C(C)C)[nH]c5c4)c4c3C(=O)C3(CCCC3)C4)cc2)[nH]1)C(C)C [Example 36],10.00 to 12.00,10.00 to 12.00,–,–
COC(=O)N[C@H](C(=O)N1CCCC1C(=O)Nc1cccc(-c2ccc(-c3ccc(-c4cnc([C@@H]5CCCN5C(=O)[C@@H](NC(=O)OC)C(C)C)[nH]4)cc3)c3c2CC2(CCCC2)C3)c1)C(C)C (stereo partly drawn) [Example 56],8.00 to 9.00,10.00 to 12.00,–,–
COC(=O)N[C@H](C(=O)N1CCC[C@H]1C(=O)Nc1ccc(-c2ccc(-c3ccc(NC(=O)[C@@H]4CCCN4C(=O)[C@@H](NC(=O)OC)C(C)C)cc3)c3c2CC2(CCCC2)C3)cc1)C(C)C [Example 39],9.00 to 10.00,10.00 to 12.00,–,–
COC(=O)N[C@H](C(=O)N1CCC[C@H]1c1ncc(C#Cc2ccc(C#Cc3cnc([C@@H]4CCCN4C(=O)[C@@H](NC(=O)OC)C(C)C)[nH]3)c3c2CC2(CCCC2)C3=O)[nH]1)C(C)C [Example 2],< 8.00,9.00 to 10.00,–,–
COC(=O)N[C@H](C(=O)N1CCC[C@H]1c1nc2ccc(-c3ccc(-c4ccc5nc([C@@H]6CCCN6C(=O)[C@@H](NC(=O)OC)C(C)C)[nH]c5c4)c4c3CC3(CCC(C)CC3)C4=O)cc2[nH]1)C(C)C (stereo partly drawn) [Example 3],10.00 to 12.00,10.00 to 12.00,–,–
CCC(C)[C@H](NC(=O)OC)C(=O)N1C2CC2C[C@H]1c1ncc(-c2ccc(-c3ccc(-c4cnc([C@@H]5CC6CC6N5C(=O)[C@@H](NC(=O)OC)C(C)CC)[nH]4)c4c3CC3(CCCC3)C4)cc2)[nH]1 (stereo partly drawn) [Example 43],< 8.00,10.00 to 12.00,–,–
COC(=O)N[C@H](C(=O)N1CCC[C@H]1c1ncc(-c2ccc(-c3ccc(-c4ccc5nc([C@@H]6CCCN6C(=O)[C@@H](NC(=O)OC)C(C)C)[nH]c5c4)c4c3CC3(CCCC3)C4)nc2)[nH]1)C(C)C [Example 21],8.00 to 9.00,10.00 to 12.00,–,–
COC(=O)N[C@H](C(=O)N1CCC[C@H]1c1nc2ccc(-c3ccc(-c4ccc5nc([C@@H]6CCCN6C(=O)[C@@H](NC(=O)OC)C(C)C)[nH]c5c4)c4c3CC3(CCCCC3)C4)cc2[nH]1)C(C)C [Example 6],10.00 to 12.00,10.00 to 12.00,–,–
COC(=O)N[C@H](C(=O)N1C[C@@H](C)C[C@H]1c1ncc(-c2ccc(-c3ccc(-c4cnc([C@@H]5C[C@H](C)CN5C(=O)[C@@H](NC(=O)OC)C(C)C)[nH]4)c4c3CC3(CCCCC3)C4)cc2)[nH]1)C(C)C [Example 20],–,–,9.00 to 10.00,10.00 to 12.00
COC(=O)N[C@H](C(=O)N1CCC[C@H]1c1ncc(-c2ccc(-c3ccc(-c4cnc([C@@H]5CCCN5C(=O)[C@@H](NC(=O)OC)C(C)C)[nH]4)c4c3C(=O)C3(CCCC3)C4)cc2)[nH]1)C(C)C [Example 37],8.00 to 9.00,8.00 to 9.00,–,–
COC(=O)N[C@H](C(=O)N1C[C@@H](C)C[C@H]1c1ncc(-c2ccc(-c3ccc(-c4ccc(-c5cnc([C@@H]6C[C@H](C)CN6C(=O)[C@@H](NC(=O)OC)C(C)C)[nH]5)cc4)c4c3CC3(CCCC3)C4)cc2)[nH]1)C(C)C [Example 40],8.00 to 9.00,10.00 to 12.00,–,–
COC(=O)N[C@H](C(=O)N1C[C@@H](C)C[C@H]1c1ncc(-c2ccc(-c3ccc(-c4cnc([C@@H]5C[C@H](C)CN5C(=O)[C@@H](NC(=O)OC)C(C)C)[nH]4)c4c3CC3(CCCCC3)C4)cc2)[nH]1)C(C)C [Example 18],–,10.00 to 12.00,< 8.00,–
COC(=O)N[C@H](C(=O)N1CCC[C@H]1c1nc2ccc(-c3ccc(-c4ccc5nc([C@@H]6CCCN6C(=O)[C@@H](NC(=O)OC)C(C)C)[nH]c5c4)c4c3CC3(CCCC3)C4)cc2[nH]1)C(C)C [Example 22],10.00 to 12.00,10.00 to 12.00,–,–
COC(=O)N[C@H](C(=O)N1CCC[C@H]1c1ncc(-c2ccc(-c3ccc(-c4cnc([C@@H]5CCCN5C(=O)[C@@H](NC(=O)OC)C(C)C)[nH]4)c4c3CC3(CCCCC3)C4)cc2)[nH]1)C(C)C [Example 50],8.00 to 9.00,10.00 to 12.00,–,–
COC(=O)N[C@H](C(=O)N1CCCC[C@H]1c1ncc(-c2ccc(-c3ccc(-c4cnc([C@@H]5CCCCN5C(=O)[C@@H](NC(=O)OC)C(C)C)[nH]4)c4c3CC3(CCCC3)C4)cc2)[nH]1)C(C)C [Example 45],< 8.00,10.00 to 12.00,–,–
COC(=O)N[C@H](C(=O)N1CC2(CC2)C[C@H]1c1ncc(-c2ccc(-c3ccc(-c4ccc(-c5cnc([C@@H]6CC7(CC7)CN6C(=O)[C@@H](NC(=O)OC)C(C)C)[nH]5)cc4)c4c3CC3(CCCC3)C4)cc2)[nH]1)C(C)C [Example 41],< 8.00,8.00 to 9.00,–,–
COC(=O)N[C@H](C(=O)N1CCC[C@H]1c1nc2ccc(-c3ccc(-c4ccc5nc([C@@H]6CCCN6C(=O)[C@@H](NC(=O)OC)C(C)C)[nH]c5c4)c4c3CC3(CCC(C)CC3)C4)cc2[nH]1)C(C)C [Example 4],10.00 to 12.00,10.00 to 12.00,–,–
COC(=O)N[C@H](C(=O)N1CCC[C@H]1c1ncc(-c2ccc(-c3ccc(-c4cnc([C@@H]5CCCN5C(=O)[C@@H](NC(=O)OC)C(C)C)[nH]4)c4c3CC3(CCCC3)C4)s2)[nH]1)C(C)C [Example 17],< 8.00,9.00 to 10.00,–,–
CCC(C)[C@H](NC(=O)OC)C(=O)N1CCC[C@H]1c1nc2ccc(-c3ccc(-c4ccc(-c5cnc([C@@H]6CCCN6C(=O)[C@@H](NC(=O)OC)C(C)C)[nH]5)cc4)c4c3CC3(CCCC3)C4)cc2[nH]1 (stereo partly drawn) [Example 11],10.00 to 12.00,10.00 to 12.00,–,–
COC(=O)N[C@H](C(=O)N1CCC[C@H]1c1nc2ccc(-c3ccc(-c4ccc5nc([C@@H]6CCCN6C(=O)[C@@H](NC(=O)OC)C(C)C)[nH]c5c4)c4c3CC3(CCCCC3)C4=O)cc2[nH]1)C(C)C [Example 5],9.00 to 10.00,10.00 to 12.00,–,–
CCC(=O)N[C@H](C(=O)N1CCC[C@H]1c1ncc(-c2ccc(-c3ccc(C#Cc4cnc([C@@H]5CCCN5C(=O)[C@@H](NC(=O)OC)C(C)C)[nH]4)c4c3CC3(CCCC3)C4)cc2)[nH]1)C(C)C [Example 24],10.00 to 12.00,10.00 to 12.00,–,–
COC(=O)N[C@H](C(=O)N1CCC[C@H]1c1ncc(C#Cc2ccc(C#Cc3cnc([C@@H]4CCCN4C(=O)[C@@H](NC(=O)OC)C(C)C)[nH]3)c3c2CC2(CCCC2)C3)[nH]1)C(C)C [Example 8],8.00 to 9.00,10.00 to 12.00,–,–
COC(=O)N[C@H](C(=O)N1CCC[C@H]1c1ncc(-c2ccc(-c3ccc(-c4cnc([C@@H]5CCCN5C(=O)[C@@H](NC(=O)OC)C(C)C)[nH]4)c4c3CC3(CCCC3)C4)cc2)[nH]1)C(C)C [Example 14],< 8.00,10.00 to 12.00,–,–
COC(=O)N[C@H](C(=O)N1CCC[C@H]1c1ncc(-c2ccc(-c3ccc(-c4ccc(-c5cnc([C@@H]6CCCN6C(=O)[C@@H](NC(=O)OC)C(C)C)[nH]5)cc4)c4c3CC3(CCCC3)C4)cc2)[nH]1)C(C)C [Example 38],< 8.00,9.00 to 10.00,–,–
